Assay [1] relates to adipose-derived stem cells (ADSCs). The assay can be described thus: Cell viability in normal adipose-derived stem cells. Particulars: 72 hours treatment, normal human cells. Type of assay: cell-based. The source says:
Human epithelial ovarian cancer A2780 cell line and its cisplatin-resistant clone A2780cis were obtained from Sigma-Aldrich (Milano, Italy). SKOV3 (HTB-77) cells were from the American Type Culture Collection (ATCC). The two cell lines were selected to reflect the two different stages of OvCa and different sensitivity to cisplatin. A2780 cell lines were derived from the ovarian tumor tissue of an untreated patient, while SKOV3 was from the ascitic fluids (after metastasis). Cells were authenticated in the laboratory using PowerPlex 16 HS system (Promega) and GeneMapper ID version 3.2.1 to identify DNA short tandem repeats. […]
4.0×10^3/mL A2780, A2780cis, and SKOV3 cells were seeded in 96-well microplates in 100 μL of culture medium. […] Cell viability was evaluated using 3-(4,5-dimethylthiazol-2-yl)-2,5-diphenyltetrazolium bromide (MTT) assay (Sigma-Aldrich) after 72 hours of treatment. Half maximal inhibitory concentrations (IC50) were calculated using the CalcuSyn software version 2 (Biosoft, Ferguson, MO, USA). Fold resistance was calculated as the ratio of the IC50 of the A2780cis to that of the parental cell line A2780.

The subject of assay [2] is A2780 and A2780cis cells. The assay can be described thus: Apoptosis by flow cytometry (annexin-V/7AAD, caspase-3,7, BAX, Bcl-2). It counts as cell-based, human. The method, then:
(§1) Results were detected by flow cytometry on a BD FACSCanto II flow cytometer. Data were analyzed using BD FACSDiva version 8.0.1 software (BD Biosciences) unless otherwise indicated. To evaluate apoptosis, tumor cells were treated for 48 hours and then stained for 15 minutes with FITC annexin-V (Thermo Fisher Scientific) and 7AAD (BD Pharmingen). […] For B-cell lymphoma/leukemia-2 (Bcl-2) and Bcl-2 associated x protein (Bax) evaluation, cells were fixed and permeabilized using FIX & PERM cell fixation and cell permeabilization kit (Life Technologies). […] The distribution of cells in different cell cycle phases was quantified using ModFit LT 4.0 software (Verity Software House, Topsham, ME, USA).
(In general: A flow cytometer gives signals particle by particle.)

Assay [3] has as its system A2780 and A2780cis cells. Nature of the assay: mitROS generation (MitoSOX red), flow cytometry. Type of assay: cell-based, human. How it is done:
as §1

In assay [4] the test system is A2780, A2780cis, and SKOV3 cells. Nature of the assay: Cell cycle analysis (PI, flow cytometry), three OvCa lines. Type of assay: cell-based, human. The following applies: 24 hours, 0.15 μM and 0.5 μM. The method, then:
2.0×10^5/mL A2780 and A2780cis cells were seeded in 6-well plates in complete medium and treated with complex 6 (0.15 μM and 0.5 μM). Results were detected by flow cytometry on a BD FACSCanto II flow cytometer. Data were analyzed using BD FACSDiva version 8.0.1 software (BD Biosciences) unless otherwise indicated. To evaluate apoptosis, tumor cells were treated for 48 hours and then stained for 15 minutes with FITC annexin-V (Thermo Fisher Scientific) and 7AAD (BD Pharmingen). […] For B-cell lymphoma/leukemia-2 (Bcl-2) and Bcl-2 associated x protein (Bax) evaluation, cells were fixed and permeabilized using FIX & PERM cell fixation and cell permeabilization kit (Life Technologies). For ROS generation, cells were stained with 5 μM MitoSOX red mitochondrial superoxide indicator (ThermoFisher Scientific) in a working solution for 30 minutes at 37° C. Cell cycle analysis was performed after 24 hours treatment with complex 6. Cells were harvested, fixed in cold 70% ethanol for 15 minutes, and stained with propidium iodide (PI) solution ([…] PI, 0.1% NP-40, 100 µg/mL PureLink RNase A, 0.1% sodium citrate) for 1 hour. The distribution of cells in different cell cycle phases was quantified using ModFit LT 4.0 software (Verity Software House, Topsham, ME, USA).

Another assay deals with OvCa cells. The assay can be described thus: Western blot of cell cycle regulatory proteins. Type of assay: cell-based, human. Particulars: 24 hours. The method, then:
Whole-cell lysates were prepared using cold RIPA buffer [150 mM NaCl, 50 mM Tris-HCl (pH 8), 0.1% SDS, 1% Igepal, and 0.5% desoxycholate sodium] containing a protease inhibitor cocktail (Roche Diagnostics S.p.a., Milan, Italy), phosphatase inhibitors 1 mM Na3VO4 and 1 mM NaF (Sigma-Aldrich). Protein concentrations were determined using the BioRad protein assay (Bio-Rad Laboratories, Inc., CA, USA). Equal amounts of proteins were mixed with Laemmli buffer, separated in 4-20% SDS-PAGE (Criterion Precast Gel, BioRad), and blotted onto a nitrocellulose membrane (Amersham, GE Healthcare). Membrane strips were blocked with EveryBilot blocking buffer (Bio-Rad) and incubated at 4° C. overnight with primary antibodies probed with the appropriate antibodies (Table 2) and developed using Immobilon Western chemioluminescent HRP substrate. Images were acquired using a ChemiDoc XRS system (Bio-Rad).
For orientation: A western blot detects proteins with antibodies after separation by electrophoresis.

Another assay concerns the target T1, 20S proteasome (Homo sapiens, UniProt P28074).
T1 construct: endogenous in cells; host or cells: A2780, A2780cis and SKOV3 ovarian cancer cells, treated for 24 h and then lysed
Nature of the assay: 20S proteasome activity in lysates of treated cells. Particulars: OvCa cells treated 24 hours. It counts as cell-based. The method, then: Proteasome activity (EC 3.4.25.1) was evaluated on the same cell lysates as TrxR using the 20S proteasome activity assay kit APT280 (Merck Millipore) and a computer-interfaced GeniusPlus microplate reader (Tecan Trading AG, Switzerland). The activity was normalized to the protein concentration and expressed as a percentage of control.

For assay [5], the system named is thioredoxin reductase (TrxR). The following applies: OvCa cells treated 24 hours. The method, then:
To evaluate both the thioredoxin reductase (TrxR) and proteasome activity, cells were treated with complex 6 for 24 hours and then lysed in 50 mM Tris-HCl, pH 7.6, 0.1% Triton X-100, 0.9% NaCl. TrxR (EC 1.8.1.9) was assayed using thioredoxin reductase assay kit (Sigma-Aldrich). Enzyme activity was determined by reading the absorbance at 412 nm using a spectrophotometer (Biomate 3 Thermo Spectronic, Thermo Electonic Corporation, Monza, Italy).
The enzymatic activity was normalized to the protein concentration and determined using the Bio-Rad protein assay (protein assay dye reagent concentrate, Bio-Rad Laboratories, Segrate, Italy).

Consider `CC(C)c1cccc(C(C)C)c1-n1ccn(-c2c(C(C)C)cccc2C(C)C)[c]1=[Au+][PH](C1CCCCC1)(C1CCCCC1)C1CCCCC1.F[P-](F)(F)(F)(F)F` [Complex 6, [Au(IPr)(C18H33P)] PF6], for which, in assay [1], the midpoint of inhibition, the IC50, lay at 2500 nM. Also, the “Apoptosis (annexin-V / 7AAD positive cells)” value in the assay with A2780 and A2780cis cells [2] (48 hours, complex 6 and auranofin at IC50 and IC75, cisplatin 0.15 μM and 0.50 μM) was “increased in a dose-dependent manner”. Besides, in the assay with A2780 and A2780cis cells [2] (FLICA, flow cytometry), the “Caspase-3,7 activation” value is “activated caspase-3,7”. In the assay on A2780 and A2780cis cells [2] (flow cytometry), the BAX expression result was “induced the proapoptotic BAX” and the BCL-2 expression result is given as “down-regulated the antiapoptotic BCL-2”. In addition, in the assay with A2780 and A2780cis cells [3], the mitROS generation entry is given as “increased mitochondrial ROS (mitROS) generation in a dose-dependent manner”. Further, the “Effect on cell cycle phases” value in assay [4] was “induced an accumulation in the G0/G1 phase of the cell cycle and a decrease in the S phases”. For the same compound, in the assay with OvCa cells, the “Expression of G1/S phase proteins (CDKs, cyclins, E2F1, pRB)” value is “down-regulated the expression of CDk2, CDk4, CDk6, CycE, CycD1, CycD3”; the “Expression of cyclin D regulators” value was “increased the expression of Foxo3A and pGSK-30 and decreased that of Cdc25a, PI3KI, pERK1/2, and bRAF”. The 20S proteasome activity result at 20S proteasome is “decreased the 20S proteasome activity in a dose-dependent manner”. Besides, in assay [5], the TrxR enzymatic activity entry is given as “did not modify its enzymatic activity”.

Usually IC50 stands for the concentration that gives 50% inhibition. A low value points to greater potency in that assay.
